# Tests used:
# [1] = system: Enterobacter cloacae, Klebsiella sp; test: Modified Ph. Eur. 5.1.3 microbial challenge test in hair conditioner, Pool 2 (Gram negative fermenters); assay type: cell-based
# Procedure: (§1) Itaconic acid, lactic acid and citric acid were purchased from Sigma-Aldrich. Six samples of unpreserved conditioner were dosed with 0.5% and 1% (w/w) itaconic acid, citric acid and lactic acid separately. An unpreserved sample was kept as a control. Each dosed product was adjusted to pH 5 using 50% sodium hydroxide (Sigma-Aldrich). A modified challenge test to that of the European Pharmacopoeia (Ph. Eur. Or EP) 5.1.3 criteria was performed on a subsample of unpreserved and each dosed product. The microbial challenge pools were added to each sample container at a ratio of 1:100. The final concentration of inoculum in the product should be 5×10^6 CFU/G of test product. Each product is mixed with a sterile spatula to ensure a homogenous distribution of the inocula throughout the product. [table] Both the inoculum level and the level of microorganism within each sample was quantified using a Total Viable Count (TVC) pour plate method at 7, 14, 21 and 28 days. A 1:10 dilution was made with a subsample of each product, performed separately in Peptone (0.1%)/tween 80 (2%) neutralising agent. A 1:10 and 1:100 dilution of each subsample was performed and pour plates produced at each dilution using tryptone soya agar. Plates were incubated at 28° C. for 48 hours and then examined for growth. Visible colonies were counted with the aid of a Quebec Colony Counter and recorded for analysis against the challenge test criteria. During the removal of a subsample of product for TVC, a reinoculation is performed at 7 and 14 days, reintroducing 5×10^6 CFU/G of bacteria before mixing using a sterile spatula to homogenise the reinoculation. [table]
# [2] = system: Pseudomonas aeruginosa, Burkholderia cepacia, Strenotrophomonas sp; test: Modified Ph. Eur. 5.1.3 microbial challenge test in hair conditioner, Pool 1 (Gram negative non-fermenters); assay type: cell-based
# Procedure: as §1
# [3] = 0.5% (w/w) in conditioner, pH 5, Pool 2, 7 days
# [4] = 0.5% (w/w) in conditioner, pH 5, Pool 2, 14 days
# [5] = 0.5% (w/w) in conditioner, pH 5, Pool 2, 21 days
# [6] = 0.5% (w/w) in conditioner, pH 5, Pool 2, 28 days
# [7] = 1% (w/w) in conditioner, pH 5, Pool 2, 7 days
# [8] = 1% (w/w) in conditioner, pH 5, Pool 2, 14 days
# [9] = 1% (w/w) in conditioner, pH 5, Pool 2, 21 days
# [10] = 1% (w/w) in conditioner, pH 5, Pool 2, 28 days
# [11] = 0.5% (w/w) in conditioner, pH 5, Pool 1, 7 days
# [12] = 0.5% (w/w) in conditioner, pH 5, Pool 1, 14 days
# [13] = 0.5% (w/w) in conditioner, pH 5, Pool 1, 21 days
# [14] = 0.5% (w/w) in conditioner, pH 5, Pool 1, 28 days
# [15] = 1% (w/w) in conditioner, pH 5, Pool 1, 7 days
# [16] = 1% (w/w) in conditioner, pH 5, Pool 1, 14 days
# [17] = 1% (w/w) in conditioner, pH 5, Pool 1, 21 days
# [18] = 1% (w/w) in conditioner, pH 5, Pool 1, 28 days
SMILES,"Microbial Log reduction [1, 3]","Microbial Log reduction [1, 4]","Microbial Log reduction [1, 5]","Microbial Log reduction [1, 6]","Microbial Log reduction [1, 7]","Microbial Log reduction [1, 8]","Microbial Log reduction [1, 9]","Microbial Log reduction [1, 10]","Microbial Log reduction [2, 11]","Microbial Log reduction [2, 12]","Microbial Log reduction [2, 13]","Microbial Log reduction [2, 14]","Microbial Log reduction [2, 15]","Microbial Log reduction [2, 16]","Microbial Log reduction [2, 17]","Microbial Log reduction [2, 18]"
C=C(CC(=O)O)C(=O)O [Itaconic acid],>5.72,>5.61,>5.82,>5.82,>5.72,>5.61,>5.82,>5.82,>5.85,>5.89,>5.79,>5.79,>5.85,>5.89,>5.79,>5.79
"O=C(O)CC(O)(CC(=O)O)C(=O)O [Citric acid, citric acid]",3.20,2.28,<2.82,2.72,4.67,2.86,<2.82,3.69,>5.85,>5.89,>5.79,>5.79,>5.85,>5.89,>5.79,>5.79
"CC(O)C(=O)O (stereo not drawn) [Lactic acid, lactic acid]",3.73,3.70,<2.82,<2.82,3.69,3.58,4.02,4.62,>5.85,>5.89,>5.79,>5.79,>5.85,>5.89,>5.79,>5.79

# Reference: patent US20210205195A1, “PRESERVED COMPOSITIONS” (Conopco, Inc., d/b/a UNILEVER, priority 2018, published 2021)
